Our source for the IC50 and melting point values is PMC6150310, “Synthesis and Structure–Activity Relationships of 4-Morpholino-7,8-Dihydro-5H-Thiopyrano[4,3-d]pyrimidine Derivatives Bearing Pyrazoline Scaffold” (Molecules : A Journal of Synthetic Chemistry and Natural …, 2017).

One series has as its system A549 cell line. The series is described as follows: MTT cytotoxicity assay, A549. Type of series: cell-based. The following applies: Homo sapiens, A549, 72 h, average of two determinations, NA = No Activity. The protocol:
(§1) Taking GDC-0941 as the reference compound, the target compounds (7a–l and 8a–l) were evaluated for the cytotoxicity against four cancer cell lines A549, PC-3, MCF-7, and HepG2 by 3-(4,5-dimethylthiazolyl-2)-2,5-diphenyltetrazolium bromide (MTT) cell proliferation assay. In order to confirm the types of target compound, selective or mixed-type inhibitors, the selected compound, 8d, was measured for its PI3Kα kinase inhibitory activity together with reference compounds GDC-0941 and PI103 via the Kinase-Glo® Luminescent […] assay. The results expressed as inhibition rates or IC50 values are summarized in Table 1 and Table 2, where the values are the average of at least two independent experiments.
(§2) The in vitro cytotoxic activities of Compounds 7a–l and 8a–l were evaluated with A549, PC-3, HepG2, and MCF-7 cell lines by the standard MTT assay, with GDC-0941 as a positive control. The cancer cell lines were cultured in minimum essential medium (MEM) supplement with 10% fetal bovine serum (FBS). Approximately, 4 × 10^3 cells, suspended in MEM medium, were plated onto each well of a 96-well plate and incubated in 5% CO2 at 37 °C for 24 h. The test compounds at the indicated final concentrations were added to the culture medium, and cell cultures continued for 72 h. Fresh MTT was added to each well at a terminal concentration of […] and incubated with cells at 37 °C for 4 h. The formazan crystals were dissolved in 100 µL of DMSO in each well, and the absorbency at 492 nm (for absorbance of MTT formazan) and 630 nm (for the reference wavelength) was measured with an enzyme linked immunosorbent assay (ELISA) reader (MR-96A Mindray Elisa Microplate Reader, Guangzhou, China). All compounds were tested three times in each of the cell lines. The results expressed as inhibition rates or IC50 were the averages of two determinations and calculated using the Bacus Laboratories Inc. Slide Scanner (Bliss) software (the Bacus Laboratories Inc. Slide Scanner (BLISS) system, Lombard, IL, USA).

A further series has as its system PC-3 cell line. Kind of series: MTT cytotoxicity assay, PC-3. Type of series: cell-based. Particulars: Homo sapiens, PC-3, 72 h, average of two determinations, NA = No Activity. As for the experimental part: as §1, §2
The test system of the next series is MCF-7 cell line. Kind of series: MTT cytotoxicity assay, MCF-7. The following applies: Homo sapiens, MCF7, 72 h, average of two determinations, NA = No Activity. Type of series: cell-based. As for the experimental part: as §1, §2
A further series concerns HepG2 cell line. Kind of series: MTT cytotoxicity assay, HepG2. Type of series: cell-based. Particulars: Homo sapiens, HepG2, 72 h, average of two determinations, NA = No Activity. The protocol:
as §1, §2

Series [1] concerns four cancer cell lines (A549, PC-3, MCF-7, HepG2). Kind of series: MTT cytotoxicity assay, four cancer cell lines together. The following applies: Homo sapiens, range over A549, PC-3, MCF-7, HepG2, read-out: IC50 values against four cancer cell lines. Type of series: cell-based. As for the experimental part:
as §1
The in vitro cytotoxic activities of Compounds 7a–l and 8a–l were evaluated with A549, PC-3, HepG2, and MCF-7 cell lines by the standard MTT assay, with GDC-0941 as a positive control. The cancer cell lines were cultured in minimum essential medium (MEM) supplement with 10% fetal bovine serum (FBS). […] The formazan crystals were dissolved in 100 µL of DMSO in each well, and the absorbency at 492 nm (for absorbance of MTT formazan) and 630 nm (for the reference wavelength) was measured with an enzyme linked immunosorbent assay (ELISA) reader (MR-96A Mindray Elisa Microplate Reader, Guangzhou, China). […]
For orientation: Formazan colour is commonly taken as a measure of viable cells.

In the next series the target is PI3Kα (Homo sapiens, UniProt P42336). Kind of series: PI3Kα Kinase-Glo Luminescent Kinase Assay. The following applies: 1 µM ATP, 60 min, average of two determinations. Type of series: biochemical. Background: Kinase-Glo reads ATP consumption through a luciferase reaction.

The structures appear in SMILES notation.

Chain of PI3Kα (P42336 whole entry): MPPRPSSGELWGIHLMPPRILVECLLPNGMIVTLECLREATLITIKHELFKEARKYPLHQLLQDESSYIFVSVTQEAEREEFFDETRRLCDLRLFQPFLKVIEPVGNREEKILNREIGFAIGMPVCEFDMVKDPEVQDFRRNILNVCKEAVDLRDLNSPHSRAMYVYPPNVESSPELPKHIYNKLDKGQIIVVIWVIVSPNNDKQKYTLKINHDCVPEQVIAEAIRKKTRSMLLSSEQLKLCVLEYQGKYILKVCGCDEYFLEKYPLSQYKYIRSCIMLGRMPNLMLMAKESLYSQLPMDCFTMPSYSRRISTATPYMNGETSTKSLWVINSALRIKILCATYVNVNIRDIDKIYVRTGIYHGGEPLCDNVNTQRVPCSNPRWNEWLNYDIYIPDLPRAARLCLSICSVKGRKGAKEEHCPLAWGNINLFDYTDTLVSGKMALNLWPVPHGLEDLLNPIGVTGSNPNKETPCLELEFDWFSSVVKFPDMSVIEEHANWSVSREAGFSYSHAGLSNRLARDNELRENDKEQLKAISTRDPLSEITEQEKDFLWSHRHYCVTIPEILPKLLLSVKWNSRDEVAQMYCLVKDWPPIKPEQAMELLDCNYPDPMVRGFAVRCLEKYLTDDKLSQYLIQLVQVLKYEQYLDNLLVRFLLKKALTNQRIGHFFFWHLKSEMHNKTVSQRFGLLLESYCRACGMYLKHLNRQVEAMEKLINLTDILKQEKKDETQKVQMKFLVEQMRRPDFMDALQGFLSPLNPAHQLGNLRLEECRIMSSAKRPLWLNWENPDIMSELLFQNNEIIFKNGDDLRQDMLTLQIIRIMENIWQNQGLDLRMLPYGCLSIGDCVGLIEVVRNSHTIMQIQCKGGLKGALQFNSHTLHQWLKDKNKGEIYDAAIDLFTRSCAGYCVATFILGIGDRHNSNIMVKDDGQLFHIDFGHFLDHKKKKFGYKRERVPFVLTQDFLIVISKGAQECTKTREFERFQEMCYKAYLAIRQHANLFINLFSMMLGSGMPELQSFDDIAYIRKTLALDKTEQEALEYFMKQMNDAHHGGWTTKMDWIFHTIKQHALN
Chain of PI3Kα (P27986 whole entry partner): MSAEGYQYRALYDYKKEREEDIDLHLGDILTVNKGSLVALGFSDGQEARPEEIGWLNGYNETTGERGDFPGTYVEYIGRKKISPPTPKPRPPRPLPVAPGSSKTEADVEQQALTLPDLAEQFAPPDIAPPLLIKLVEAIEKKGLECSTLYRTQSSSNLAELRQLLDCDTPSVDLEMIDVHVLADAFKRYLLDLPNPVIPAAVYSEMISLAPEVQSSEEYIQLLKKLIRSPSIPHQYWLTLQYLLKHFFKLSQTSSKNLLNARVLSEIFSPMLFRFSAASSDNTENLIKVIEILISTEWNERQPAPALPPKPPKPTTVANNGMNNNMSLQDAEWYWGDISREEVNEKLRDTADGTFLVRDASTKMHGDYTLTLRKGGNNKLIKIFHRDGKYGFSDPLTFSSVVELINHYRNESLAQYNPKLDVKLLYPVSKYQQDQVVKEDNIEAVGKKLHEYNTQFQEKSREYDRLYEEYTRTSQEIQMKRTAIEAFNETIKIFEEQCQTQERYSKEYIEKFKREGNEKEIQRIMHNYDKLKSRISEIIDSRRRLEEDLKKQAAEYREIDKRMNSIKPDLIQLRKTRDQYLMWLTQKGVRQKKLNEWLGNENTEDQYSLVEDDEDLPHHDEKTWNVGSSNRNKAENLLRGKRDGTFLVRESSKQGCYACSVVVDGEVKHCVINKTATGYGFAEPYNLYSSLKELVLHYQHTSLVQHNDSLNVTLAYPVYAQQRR

For `Cc1ccc(C2=NN(c3nc4c(c(N5CCOCC5)n3)CSCC4)[C@@H](c3ccc(Cl)c(Cl)c3)C2)cc1` [Compound 7b, (R)-4-(2-(5-(3,4-Dichlorophenyl)-3-(p-tolyl)-4,5-dihydro-1H-pyrazol-1-yl)-7,8-dihydro-5H-thiopyrano[4,3-d]pyrimidin-4-yl)morpholine], the melting point (in general, the temperature, or range, at which the solid turns liquid) was 194 to 196 °C. Also, in the series with A549 cell line, half-maximal inhibition (IC50) was put at 24.2 ± 0.74 µM. Moreover, the half-maximal inhibitory concentration (IC50) (as a rule, the point on the concentration scale where inhibition reaches its midpoint) with PC-3 cell line was found to be 14.1 ± 3.45 µM. In addition, the IC50 in the series on MCF-7 cell line stood at 42.6 ± 1.75 µM. Besides, it took 27.8 ± 0.99 µM to reach half-maximal inhibition in the series with HepG2 cell line (IC50).
The like results for `COc1ccc(C2=NN(c3nc4c(c(N5CCOCC5)n3)CSCC4)[C@@H](c3ccc(F)cc3)C2)cc1` [Compound 7h, (R)-4-(2-(5-(4-Fluorophenyl)-3-(4-methoxyphenyl)-4,5-dihydro-1H-pyrazol-1-yl)-7,8-dihydro-5H-thiopyrano[4,3-d]pyrimidin-4-yl)morpholine] were, in that order, 116 to 118 °C, 26.7 ± 0.88 µM, 29.8 ± 0.89 µM, 30.3 ± 0.88 µM and 20.5 ± 0.67 µM.
Regarding `Fc1ccc(C2=NN(c3nc4c(c(N5CCOCC5)n3)CSCC4)[C@@H](c3ccc(Cl)c(Cl)c3)C2)cc1` [Compound 7d, (R)-4-(2-(5-(3,4-Dichlorophenyl)-3-(4-fluorophenyl)-4,5-dihydro-1H-pyrazol-1-yl)-7,8-dihydro-5H-thiopyrano[4,3-d]pyrimidin-4-yl)morpholine], the melting point fell in the range of 207 to 211 °C. The IC50 in the series on A549 cell line worked out at 6.02 ± 1.22 µM. The IC50 in the series with PC-3 cell line was found to be 8.91 ± 0.72 µM. For the same molecule, the IC50 in the series on MCF-7 cell line is 10.3 ± 0.94 µM. The half-inhibitory concentration (IC50) with HepG2 cell line came out at 8.39 ± 1.91 µM.
The like results for `Fc1ccc(C2=NN(c3nc4c(c(N5CCOCC5)n3)CSCC4)[C@@H](c3ccc(F)cc3)C2)cc1` [Compound 7g, (R)-4-(2-(3,5-Bis(4-fluorophenyl)-4,5-dihydro-1H-pyrazol-1-yl)-7,8-dihydro-5H-thiopyrano[4,3-d]pyrimidin-4-yl)morpholine] were, in that order, 144 to 146 °C, 16.9 ± 0.66 µM, 15.2 ± 1.54 µM, 26.4 ± 0.37 µM and 20.3 ± 0.37 µM.
Consider `O=S1(=O)CCc2nc(N3N=C(c4ccc(F)cc4)C[C@@H]3c3ccc(Cl)c(Cl)c3)nc(N3CCOCC3)c2C1` (racemic) [Compound 8d, (R)-2-(5-(3,4-Dichlorophenyl)-3-(4-fluorophenyl)-4,5-dihydro-1H-pyrazol-1-yl)-4-morpholino-7,8-dihydro-5H-thiopyrano[4,3-d]pyrimidine 6,6-dioxide], for which the values for the half-maximal inhibitory concentration (IC50) (in series [1]; in the series with MCF-7 cell line; on PI3Kα) were 6.02 to 10.3 µM, 10.3 ± 0.94 µM and 8.38 ± 0.21 µM, respectively.
`O=S1(=O)CCc2nc(N3N=C(c4ccc(F)cc4)C[C@@H]3c3ccc(F)cc3)nc(N3CCOCC3)c2C1` [Compound 8g, (R)-2-(3,5-bis(4-Fluorophenyl)-4,5-dihydro-1H-pyrazol-1-yl)-4-morpholino-7,8-dihydro-5H-thiopyrano[4,3-d]pyrimidine 6,6-dioxide] gave a melting point of 246 to 249 °C. The half-inhibitory concentration (IC50) with A549 cell line is 29.1 ± 0.49 µM. The same molecule yielded a concentration for half-maximal inhibition (IC50) in the series on PC-3 cell line of 21.8 ± 0.67 µM. Moreover, 35.3 ± 0.39 µM corresponded to half-maximal inhibition in the series on MCF-7 cell line (IC50). The midpoint of inhibition in the series on HepG2 cell line, the IC50, lay at 36.01 ± 0.18 µM.
